From patent publication US10308643B2, “Heterocyclic compound” (Takeda Pharmaceutical Company Limited, priority 2015, dated 2019)

How the values were obtained:
Format in all cases: biochemical
HDAC6 enzyme = biological target: T1, HDAC6 enzyme (Homo sapiens, UniProt Q9UBN7); test: HDAC1/6 Enzyme Inhibitory Assay (HDAC-Glo I/II Assay kit), HDAC6; details: 1 μM test compound; wells without enzyme = 100% inhibition; read-out: HDAC6 inhibitory rate (%) (1 μM)
T1 construct: transducing full length HDAC1 and HDAC6 genes into Sf-9 insect cells; GST; purchased SignalChem; host or cells: Sf-9 insect cells
T1 sequence (Q9UBN7 1-1215): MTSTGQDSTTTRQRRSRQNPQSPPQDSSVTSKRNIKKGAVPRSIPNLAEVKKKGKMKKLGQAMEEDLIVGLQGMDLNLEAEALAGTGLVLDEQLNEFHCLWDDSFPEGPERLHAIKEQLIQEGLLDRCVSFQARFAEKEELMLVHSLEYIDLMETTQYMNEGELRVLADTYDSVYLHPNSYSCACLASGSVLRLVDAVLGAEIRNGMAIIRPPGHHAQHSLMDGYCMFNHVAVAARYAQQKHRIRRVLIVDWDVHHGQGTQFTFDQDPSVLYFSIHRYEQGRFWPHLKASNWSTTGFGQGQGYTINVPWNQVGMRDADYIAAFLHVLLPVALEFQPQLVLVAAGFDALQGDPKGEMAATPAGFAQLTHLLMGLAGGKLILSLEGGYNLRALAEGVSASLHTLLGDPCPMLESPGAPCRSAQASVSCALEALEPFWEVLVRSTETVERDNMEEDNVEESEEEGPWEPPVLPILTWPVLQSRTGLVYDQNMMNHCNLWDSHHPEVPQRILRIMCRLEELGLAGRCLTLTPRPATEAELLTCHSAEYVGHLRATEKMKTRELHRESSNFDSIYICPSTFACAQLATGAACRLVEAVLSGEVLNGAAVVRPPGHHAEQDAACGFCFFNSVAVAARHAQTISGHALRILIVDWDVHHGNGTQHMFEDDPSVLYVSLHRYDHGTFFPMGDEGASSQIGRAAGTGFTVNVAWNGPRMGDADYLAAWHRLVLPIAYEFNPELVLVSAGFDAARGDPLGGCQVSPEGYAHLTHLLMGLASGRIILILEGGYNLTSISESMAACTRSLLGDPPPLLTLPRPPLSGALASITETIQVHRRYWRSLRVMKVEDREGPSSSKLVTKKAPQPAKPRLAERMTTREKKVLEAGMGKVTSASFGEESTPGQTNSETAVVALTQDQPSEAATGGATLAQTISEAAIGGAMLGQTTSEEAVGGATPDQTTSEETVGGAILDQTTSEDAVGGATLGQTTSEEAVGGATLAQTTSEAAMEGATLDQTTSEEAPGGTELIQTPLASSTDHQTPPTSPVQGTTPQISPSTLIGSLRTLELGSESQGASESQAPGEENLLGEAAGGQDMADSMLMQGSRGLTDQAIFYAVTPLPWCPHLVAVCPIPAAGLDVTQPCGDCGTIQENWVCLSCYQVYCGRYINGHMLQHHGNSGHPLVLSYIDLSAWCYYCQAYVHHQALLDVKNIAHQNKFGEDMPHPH
Procedure, shortened: (§1)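 Full-length human HDAC1 or HDAC6, expressed in Sf-9 cells and GST-purified, was preincubated with compound for 60 min at room temperature in Tris-HCl pH 7.5 buffer with MgCl2, KCl, NaCl, glutathione and Tween-20. HDAC-Glo substrate-developer was then added, and luminescence was read after 20 min. Inhibition was referenced to no-enzyme wells as 100%.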

HDAC1 enzyme = biological target: T2, HDAC1 enzyme (Homo sapiens, UniProt Q13547); test: HDAC1/6 Enzyme Inhibitory Assay (HDAC-Glo I/II Assay kit), HDAC1; details: 1 μM test compound; wells without enzyme = 100% inhibition; read-out: HDAC1 inhibitory rate (%) (1 μM)
T2 construct: transducing full length HDAC1 and HDAC6 genes into Sf-9 insect cells; GST; purchased SignalChem; host or cells: Sf-9 insect cells
T2 sequence (Q13547 whole entry): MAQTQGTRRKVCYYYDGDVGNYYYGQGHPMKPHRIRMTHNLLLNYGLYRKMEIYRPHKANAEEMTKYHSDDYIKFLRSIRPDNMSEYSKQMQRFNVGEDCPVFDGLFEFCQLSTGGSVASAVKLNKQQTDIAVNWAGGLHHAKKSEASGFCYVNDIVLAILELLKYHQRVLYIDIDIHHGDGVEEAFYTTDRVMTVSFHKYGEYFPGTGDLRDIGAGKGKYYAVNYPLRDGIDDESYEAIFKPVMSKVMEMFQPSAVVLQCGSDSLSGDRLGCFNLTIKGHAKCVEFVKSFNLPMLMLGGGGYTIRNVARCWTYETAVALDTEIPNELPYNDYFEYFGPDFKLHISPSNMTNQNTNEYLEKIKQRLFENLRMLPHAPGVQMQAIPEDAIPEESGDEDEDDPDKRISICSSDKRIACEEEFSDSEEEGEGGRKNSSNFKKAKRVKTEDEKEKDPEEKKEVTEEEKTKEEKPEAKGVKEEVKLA
Procedure, shortened: as §1

HDAC9 enzyme = biological target: T3, HDAC9 enzyme (Homo sapiens, UniProt Q9UKV0); test: HDAC9 Enzyme Inhibitory Assay (HDAC-Glo class IIa); details: 1 μM test compound; wells without enzyme = 100% inhibition; read-out: HDAC9 inhibitory rate (%) (1 μM)
T3 construct: transducing full length HDAC9 gene into Sf-9 insect cells; made in house; host or cells: Sf-9 insect cells
T3 sequence (Q9UKV0 whole entry, species assumed): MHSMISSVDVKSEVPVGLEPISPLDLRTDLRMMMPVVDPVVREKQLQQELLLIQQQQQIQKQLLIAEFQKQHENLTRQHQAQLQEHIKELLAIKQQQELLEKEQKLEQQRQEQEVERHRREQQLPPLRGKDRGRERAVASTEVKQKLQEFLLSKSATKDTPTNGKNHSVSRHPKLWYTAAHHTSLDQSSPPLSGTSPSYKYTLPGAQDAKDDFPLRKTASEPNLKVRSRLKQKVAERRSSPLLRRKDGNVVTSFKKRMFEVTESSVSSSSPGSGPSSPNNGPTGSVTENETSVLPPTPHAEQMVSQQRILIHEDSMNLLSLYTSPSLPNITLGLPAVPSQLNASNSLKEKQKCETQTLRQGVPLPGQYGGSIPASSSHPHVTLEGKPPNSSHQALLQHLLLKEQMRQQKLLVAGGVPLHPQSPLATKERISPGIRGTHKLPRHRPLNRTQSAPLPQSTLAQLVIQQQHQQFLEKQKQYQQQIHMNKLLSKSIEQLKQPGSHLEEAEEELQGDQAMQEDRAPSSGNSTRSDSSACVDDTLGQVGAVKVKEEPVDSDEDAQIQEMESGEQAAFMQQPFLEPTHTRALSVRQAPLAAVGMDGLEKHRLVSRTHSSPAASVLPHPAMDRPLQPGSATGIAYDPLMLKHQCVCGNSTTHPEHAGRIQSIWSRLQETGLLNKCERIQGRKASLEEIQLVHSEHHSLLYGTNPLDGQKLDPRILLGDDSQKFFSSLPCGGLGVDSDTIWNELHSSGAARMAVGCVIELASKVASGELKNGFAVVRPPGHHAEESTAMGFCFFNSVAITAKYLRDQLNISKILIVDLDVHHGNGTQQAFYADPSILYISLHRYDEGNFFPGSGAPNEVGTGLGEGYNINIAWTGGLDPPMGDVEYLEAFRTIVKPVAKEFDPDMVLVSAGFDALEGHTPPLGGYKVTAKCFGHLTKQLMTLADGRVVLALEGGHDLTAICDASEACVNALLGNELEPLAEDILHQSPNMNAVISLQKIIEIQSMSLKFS
Procedure, shortened: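 Luminescent HDAC-Glo class IIa readout after a 20 min room-temperature reaction; relative inhibition referenced to enzyme-free wells as 100%. Test compound first preincubated 60 min with Sf-9-expressed, Ni-NTA-purified full-length HDAC9 in pH 7.5 Tris buffer containing 135 mM NaCl, 0.6 mM glutathione and 0.01% Tween-20.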

| Structure (SMILES) | inhibition at 1 µM (HDAC6 enzyme) | inhibition at 1 µM (HDAC1 enzyme) | inhibition at 1 µM (HDAC9 enzyme) |
| --- | --- | --- | --- |
| O=C(CC1(O)CCCC1)N[C@@H]1CCCC[C@H]1N1Cc2ccc(-c3noc(C(F)(F)F)n3)cc2C1=O [Example 91, 2-(1-hydroxycyclopentyl)-N-((1R,2R)-2-(1-oxo-6-(5-(trifluoromethyl)-1,2,4-oxadiazol-3-yl)-1,3-dihydro-2H-isoindol-2-yl)cyclohexyl)acetamide] | 99% | 11% | 44% |
| O=C(N[C@@H]1CCCC[C@H]1N1Cc2ccc(-c3noc(C(F)(F)F)n3)cc2C1=O)N1CCOCC1 [Example 139, N-((1R,2R)-2-(1-oxo-6-(5-(trifluoromethyl)-1,2,4-oxadiazol-3-yl)-1,3-dihydro-2H-isoindol-2-yl)cyclohexyl)morpholine-4-carboxamide] | 98% | 5% | 25% |
| CC1(C(=O)N[C@@H]2CCCC[C@H]2N2Cc3ccc(-c4noc(C(F)(F)F)n4)cc3C2=O)CC1 [Example 36, 1-methyl-N-((1R,2R)-2-(1-oxo-6-(5-(trifluoromethyl)-1,2,4-oxadiazol-3-yl)-1,3-dihydro-2H-isoindol-2-yl)cyclohexyl) cyclopropanecarboxamide] | 98% | 12% | 66% |
| O=C1c2cc(-c3noc(C(F)(F)F)n3)ccc2CN1[C@@H]1CCCC[C@H]1NC(=O)C1(c2ccccc2)COC1 [Example 134, N-((1R,2R)-2-(1-oxo-6-(5-(trifluoromethyl)-1,2,4-oxadiazol-3-yl)-1,3-dihydro-2H-isoindol-2-yl)cyclohexyl)-3-phenyloxetane-3-carboxamide] | 99% | -5% | 36% |
| CC(C)(O)C(=O)N[C@@H]1CCCC[C@H]1N1Cc2ccc(-c3noc(C(F)(F)F)n3)cc2C1=O [Example 95, 2-hydroxy-2-methyl-N-((1R,2R)-2-(1-oxo-6-(5-(trifluoromethyl)-1,2,4-oxadiazol-3-yl)-1,3-dihydro-2H-isoindol-2-yl)cyclohexyl)propanamide] | 100% | 3% | 37% |
| O=C(N[C@@H]1CCCC[C@H]1N1Cc2ccc(-c3noc(C(F)(F)F)n3)cc2C1=O)C1CCOC1 (stereo partly drawn) [Example 116, N-((1R,2R)-2-(1-oxo-6-(5-(trifluoromethyl)-1,2,4-oxadiazol-3-yl)-1,3-dihydro-2H-isoindol-2-yl)cyclohexyl)tetrahydrofuran-3-carboxamide] | 98% | 4% | 45% |
| O=C(N[C@H]1CCCC[C@@H]1N1Cc2ccc(-c3noc(C(F)(F)F)n3)cc2C1=O)C1CC1 [Example 33, N-((1S,2S)-2-(1-oxo-6-(5-(trifluoromethyl)-1,2,4-oxadiazol-3-y)-1,3-dihydro-2H-isoindol-2-yl)cyclohexyl)cyclopropanecarboxamide] | 83% | 7% | 46% |
| O=C(c1ccccc1)N1C[C@@H](N2Cc3ccc(-c4noc(C(F)(F)F)n4)cc3C2=O)[C@H](c2ccccc2)C1 (relative stereo) [Example 10, trans-2-(1-benzoyl-4-phenylpyrrolidin-3-yl)-6-(5-(trifluoromethyl)-1,2,4-oxadiazol-3-yl)isoindolin-1-one] | 96% | 63% | 96% |
| O=C1c2cc(-c3noc(C(F)(F)F)n3)ccc2CN1[C@H]1CCCC[C@@H]1N1CCOCC1 (relative stereo) [Example 59, 2-(trans-2-(morpholin-4-yl)cyclohexyl)-6-(5-(trifluoromethyl)-1,2,4-oxadiazol-3-yl)isoindolin-1-one] | 97% | 60% | 91% |
| N[C@H]1CCCC[C@@H]1N1Cc2ccc(-c3noc(C(F)(F)F)n3)cc2C1=O [Example 29, 2-((1S,2S)-2-aminocyclohexyl)-6-(5-(trifluoromethyl)-1,2,4-oxadiazol 3-yl)isoindolin-1-one] | 34% | -2% | 45% |
| Cc1cc([C@@H]2CNCC[C@H]2N2Cc3ccc(-c4noc(C(F)(F)F)n4)cc3C2=O)ccc1F (relative stereo) [Example 49, 2-(trans-3-(4-fluoro-3-methylphenyl)piperidin-4-yl)-6-(5-(trifluoromethyl)-1,2,4-oxadiazol-3-yl)isoindolin-1-one] | 100% | 96% | 99% |

Other lines, results leading:

| inhibition at 1 µM (HDAC6 enzyme) | inhibition at 1 µM (HDAC1 enzyme) | inhibition at 1 µM (HDAC9 enzyme) | Structure (SMILES) |
| --- | --- | --- | --- |
| 98% | 4% | 53% | O=C(N[C@@H]1CCOC[C@H]1N1Cc2ccc(-c3noc(C(F)(F)F)n3)cc2C1=O)[C@H]1CCOC1 [Example 208, (3S)-N-((3S,4R)-3-(1-oxo-6-(5-(trifluoromethyl)-1,2,4-oxadiazol-3-yl)-1,3-dihydro-2H-isoindol-2-yl)tetrahydro-2H-pyran-4-yl)tetrahydrofuran-3-carboxamide] |
| 101% | 4% | 22% | CN1CC(C)(C(=O)N[C@@H]2CCCC[C@H]2N2Cc3ccc(-c4noc(C(F)(F)F)n4)cc3C2=O)C1 [Example 196, 1,3-dimethyl-N-((1R,2R)-2-(1-oxo-6-(5-(trifluoromethyl)-1,2,4-oxadiazol-3-yl)-1,3-dihydro-2H-isoindol-2-yl)cyclohexyl)azetidine-3-carboxamide] |
| 48% | 13% | 51% | O=C(N[C@H]1CCOC[C@@H]1N1Cc2ccc(-c3noc(C(F)(F)F)n3)cc2C1=O)[C@@H]1CCOC1 [Example 209, (3R)-N-((3R,4S)-3-(1-oxo-6-(5-(trifluoromethyl)-1,2,4-oxadiazol-3-yl)-1,3-dihydro-2H-isoindol-2-yl)tetrahydro-2H-pyran-4-yl)tetrahydrofuran-3-carboxamide] |
| 96% | 5% | 23% | O=C(N[C@@H]1CCCC[C@H]1N1Cc2ccc(-c3noc(C(F)(F)F)n3)cc2C1=O)N1CCS(=O)(=O)CC1 [Example 168, N-((1R,2R)-2-(1-oxo-6-(5-(trifluoromethyl)-1,2,4-oxadiazol-3-yl)-1,3-dihydro-2H-isoindol-2-yl)cyclohexyl)thiomorpholine-4-carboxamide 1,1-dioxide] |
| 100% | 12% | 36% | CC(C)N(C(=O)N[C@@H]1CCCC[C@H]1N1Cc2ccc(-c3noc(C(F)(F)F)n3)cc2C1=O)C(C)C [Example 166, 1,1-diisopropyl-3-((1R,2R)-2-(1-oxo-6-(5-(trifluoromethyl)-1,2,4-oxadiazol-3-yl)-1,3-dihydro-2H-isoindol-2-yl)cyclohexyl)urea] |
| 74% | 2% | 41% | O=C1CCCN1[C@H]1COCC[C@@H]1N1Cc2ccc(-c3noc(C(F)(F)F)n3)cc2C1=O [Example 181, 2-((3R,4S)-3-(2-oxopyrrolidin-1-yl)tetrahydro-2H-pyran-4-yl)-6-(5-(trifluoromethyl)-1,2,4-oxadiazol-3-yl)isoindolin-1-one] |
